Assay results taken from patent US11028079B2 (ConverGene LLC, priority 2015, dated 2021).

These molecules were tested against T1, BRD4 bromodomains (Homo sapiens, UniProt O60885) (assay: BROMOscan bromodomain competition binding assay (DiscoveRx)). Conditions: Kd from 11 compound concentrations ranging from 0 to 10 μM, read-out: BROMOscan Relative Activity.
T1 construct: fused on or other part: T7 phage capsid protein (phage-display fusion; the phage DNA is read out by qPCR)
Method in brief: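 Compounds in 0.1% DMSO/0.9% MEG competed with a solid-phase acetylated peptide for T7 phage-fused BRD4 bromodomains, with the retained bromodomain measured by qPCR.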

SMILES | Kd
Cc1nocc1-c1ccc2nc(N3CCN(CCN(C)C)CC3)nc(NCc3cccc(Cl)c3)c2c1 [Example 93, N-(3-chlorobenzyl)-2-(4-(2-(dimethylamino)ethyl)piperazin-1-yl)-6-(3-methylisoxazol-4-yl)quinazolin-4-amine] | < 500 nM
Cc1noc(C)c1-c1ccc2nc(N3CCN(CCN(C)C)CC3)nc(NCc3ccc(Cl)s3)c2c1 [Example 94, N-((5-chlorothiophen-2-yl)methyl)-2-(4-(2-(dimethylamino)ethyl)piperazin-1-yl)-6-(3,5-dimethylisoxazol-4-yl)quinazolin-4-amine] | < 500 nM
Cc1noc(C)c1-c1ccc2nc(N3CCN(CCN(C)C)CC3)nc(NCc3ccc(Cl)cc3)c2c1 [Example 95, N-(4-chlorobenzyl)-2-(4-(2-(dimethylamino)ethyl)piperazin-1-yl)-6-(3,5-dimethylisoxazol-4-yl)quinazolin-4-amine] | 500 to 5000 nM
CN(C)CCN1CCN(c2nc(NCc3cccc(Cl)c3)c3cc(-c4ccnc(O)c4)ccc3n2)CC1 [Example 96, 4-(4-((3-chlorobenzyl)amino)-2-(4-(2-(dimethylamino)ethyl)piperazin-1-yl)quinazolin-6-yl)pyridin-2-ol] | > 5000 nM
Cc1noc(C)c1-c1ccc2nc(-c3cnn(CC(=O)N(C)C)c3)nc(NCc3cccc(Cl)c3)c2c1 [Example 98, 2-(4-(4-((3-chlorobenzyl)amino)-6-(3,5-dimethylisoxazol-4-yl)quinazolin-2-yl)-1H-pyrazol-1-yl)-N,N-dimethylacetamide] | < 500 nM
Cc1noc(C)c1-c1ccc2nc(N3CCN(CCN(C)C)CC3)nc(NCc3ccc(F)cc3)c2c1 [Example 99, 2-(4-(2-(dimethylamino)ethyl)piperazin-1-yl)-6-(3,5-dimethylisoxazol-4-yl)-N-(4-fluorobenzyl)quinazolin-4-amine] | 500 to 5000 nM
Cn1cc(-c2ccc3nc(Cl)nc(NCc4cccc(Cl)c4)c3c2)ccc1=O [Example 100, 5-(2-chloro-4-((3-chlorobenzyl)amino)quinazolin-6-yl)-1-methylpyridin-2(1H)-one] | > 5000 nM
Cn1cc(-c2ccc3nc(-c4cnn(CC(N)=O)c4)nc(NCc4cccc(Cl)c4)c3c2)ccc1=O [Example 101, 2-(4-(4-((3-chlorobenzyl)amino)-6-(1-methyl-6-oxo-1,6-dihydropyridin-3-yl)quinazolin-2-yl)-1H-pyrazol-1-yl)acetamide] | < 500 nM
CNC(=O)Cn1cc(-c2nc(NCc3cccc(Cl)c3)c3cc(-c4ccc(=O)n(C)c4)ccc3n2)cn1 [Example 102, 2-(4-(4-((3-chlorobenzyl)amino)-6-(1-methyl-6-oxo-1,6-dihydropyridin-3-yl)quinazolin-2-yl)-1H-pyrazol-1-yl)-N-methylacetamide] | < 500 nM
Cn1cc(-c2ccc3nc(-c4cnn(CC(C)(C)O)c4)nc(NCc4cccc(Cl)c4)c3c2)ccc1=O [Example 103, 5-(4-((3-chlorobenzyl)amino)-2-(1-(2-hydroxy-2-methylpropyl)-1H-pyrazol-4-yl)quinazolin-6-yl)-1-methylpyridin-2(1H)-one] | < 500 nM
Cn1cc(-c2ccc3nc(-c4cnn(CCC#N)c4)nc(NCc4cccc(Cl)c4)c3c2)ccc1=O [Example 104, 3-(4-(4-((3-chlorobenzyl)amino)-6-(1-methyl-6-oxo-1,6-dihydropyridin-3-yl)quinazolin-2-yl)-1H-pyrazol-1-yl)propanenitrile] | < 500 nM
Cn1cc(-c2ccc3nc(-c4cnn(C(C)(C)CO)c4)nc(NCc4cccc(Cl)c4)c3c2)ccc1=O [Example 105, 5-(4-((3-chlorobenzyl)amino)-2-(1-(1-hydroxy-2-methylpropan-2-yl)-1H-pyrazol-4-yl)quinazolin-6-yl)-1-methylpyridin-2(1H)-one] | < 500 nM
Cn1cc(-c2ccc3nc(N4CCN(C(=O)CO)CC4)nc(NCc4cccc(Cl)c4)c3c2)ccc1=O [Example 106, 5-(4-((3-chlorobenzyl)amino)-2-(4-(2-hydroxyacetyl)piperazin-1-yl)quinazolin-6-yl)-1-methylpyridin-2(1H)-one] | < 500 nM
Cn1cc(-c2ccc3nc(N4CCN(C(=O)CN)CC4)nc(NCc4cccc(Cl)c4)c3c2)ccc1=O [Example 107, 5-(2-(4-(2-aminoacetyl)piperazin-1-yl)-4-((3-chlorobenzyl)amino)quinazolin-6-yl)-1-methylpyridin-2(1H)-one] | < 500 nM
Cn1cc(-c2ccc3nc(N4CCN(CC(N)=O)CC4)nc(NCc4cccc(Cl)c4)c3c2)ccc1=O [Example 108, 2-(4-(4-((3-chlorobenzyl)amino)-6-(1-methyl-6-oxo-1,6-dihydropyridin-3-yl)quinazolin-2-yl)piperazin-1-yl)acetamide] | < 500 nM
CNC(=O)CN1CCN(c2nc(NCc3cccc(Cl)c3)c3cc(-c4ccc(=O)n(C)c4)ccc3n2)CC1 [Example 109, 2-(4-(4-((3-chlorobenzyl)amino)-6-(1-methyl-6-oxo-1,6-dihydropyridin-3-yl)quinazolin-2-yl)piperazin-1-yl)-N-methylacetamide] | < 500 nM

SMILES | Kd
CN(C)C(=O)CN1CCN(c2nc(NCc3cccc(Cl)c3)c3cc(-c4ccc(=O)n(C)c4)ccc3n2)CC1 [Example 110, 2-(4-(4-((3-chlorobenzyl)amino)-6-(1-methyl-6-oxo-1,6-dihydropyridin-3-yl)quinazolin-2-yl)piperazin-1-yl)-N,N-dimethylacetamide] | < 500 nM
C[C@H](O)CN1CCN(c2nc(NCc3cccc(Cl)c3)c3cc(-c4ccc(=O)n(C)c4)ccc3n2)CC1 [Example 111, (S)-5-(4-((3-chlorobenzyl)amino)-2-(4-(2-hydroxypropyl)piperazin-1-yl)quinazolin-6-yl)-1-methylpyridin-2(1H)-one] | < 500 nM
Cc1noc(C)c1-c1ccc2nc(Cl)nc(NCc3cncc(Cl)c3)c2c1 [Example 112, 2-chloro-N-((5-chloropyridin-3-yl)methyl)-6-(3,5-dimethylisoxazol-4-yl)quinazolin-4-amine] | 500 to 5000 nM
Cn1cc(-c2ccc3nc(Cl)nc(NCc4cncc(Cl)c4)c3c2)ccc1=O [Example 113, 5-(2-chloro-4-(((5-chloropyridin-3-yl)methyl)amino)quinazolin-6-yl)-1-methylpyridin-2(1H)-one] | > 5000 nM
Cn1cc(-c2ccc3nc(-c4cnn(CCO)c4)nc(NCc4cccc(Cl)c4)c3c2)ccc1=O [Example 114, 5-(4-((3-chlorobenzyl)amino)-2-(1-(2-hydroxyethyl)-1H-pyrazol-4-yl)quinazolin-6-yl)-1-methylpyridin-2(1H)-one] | 500 to 5000 nM
Cc1cncc(CNc2nc(N3CCN(CCN(C)C)CC3)nc3ccc(-c4c(C)noc4C)cc23)c1 [Example 115, 2-(4-(2-(dimethylamino)ethyl)piperazin-1-yl)-6-(3,5-dimethylisoxazol-4-yl)-N-((5-methylpyridin-3-yl)methyl)quinazolin-4-amine] | < 500 nM
CN(C)CCN1CCN(c2nc(NCc3cccc(Cl)c3)c3cc(-c4ccn(C)c(=O)c4)ccc3n2)CC1 [Example 116, 4-(4-((3-chlorobenzyl)amino)-2-(4-(2-(dimethylamino)ethyl)piperazin-1-yl)quinazolin-6-yl)-1-methylpyridin-2(1H)-one] | > 5000 nM
Cc1noc(C)c1-c1ccc2nc(N3CCN(CC(N)=O)CC3)nc(NCc3cncc(Cl)c3)c2c1 [Example 117, 2-(4-(4-(((5-chloropyridin-3-yl)methyl)amino)-6-(3,5-dimethylisoxazol-4-yl)quinazolin-2-yl)piperazin-1-yl)acetamide] | < 500 nM
CNC(=O)CN1CCN(c2nc(NCc3cncc(Cl)c3)c3cc(-c4c(C)noc4C)ccc3n2)CC1 [Example 118, 2-(4-(4-(((5-chloropyridin-3-yl)methyl)amino)-6-(3,5-dimethylisoxazol-4-yl)quinazolin-2-yl)piperazin-1-yl)-N-methylacetamide] | < 500 nM
Cc1noc(C)c1-c1ccc2nc(N3CCN(CC(=O)N(C)C)CC3)nc(NCc3cncc(Cl)c3)c2c1 [Example 119, 2-(4-(4-(((5-chloropyridin-3-yl)methyl)amino)-6-(3,5-dimethylisoxazol-4-yl)quinazolin-2-yl)piperazin-1-yl)-N,N-dimethylacetamide] | < 500 nM
Cc1noc(C)c1-c1ccc2nc(N3CCN(CCO)CC3)nc(NCc3cncc(Cl)c3)c2c1 [Example 120, 2-(4-(4-(((5-chloropyridin-3-yl)methyl)amino)-6-(3,5-dimethylisoxazol-4-yl)quinazolin-2-yl)piperazin-1-yl)ethanol] | < 500 nM
Cn1cc(-c2ccc3nc(N4CCN(CCO)CC4)nc(NCc4cccc(Cl)c4)c3c2)ccc1=O [Example 121, 5-(4-((3-chlorobenzyl)amino)-2-(4-(2-hydroxyethyl)piperazin-1-yl)quinazolin-6-yl)-1-methylpyridin-2(1H)-one] | < 500 nM
Cn1cc(C(=O)N2CCN(c3nc(NCc4cccc(Cl)c4)c4cc(-c5ccc(=O)n(C)c5)ccc4n3)CC2)cn1 [Example 122, 5-(4-((3-chlorobenzyl)amino)-2-(4-(1-methyl-1H-pyrazole-4-carbonyl)piperazin-1-yl)quinazolin-6-yl)-1-methylpyridin-2(1H)-one] | < 500 nM
CN(C)CCCN1CCN(c2nc(NCc3cccc(Cl)c3)c3cc(-c4ccc(=O)n(C)c4)ccc3n2)CC1 [Example 123, 5-(4-((3-chlorobenzyl)amino)-2-(4-(3-(dimethylamino)propyl)piperazin-1-yl)quinazolin-6-yl)-1-methylpyridin-2(1H)-one] | < 500 nM
CN(C)CCN1CCN(c2nc(NCc3cncc(Cl)c3)c3cc(-c4ccc(=O)n(C)c4)ccc3n2)CC1 [Example 124, 5-(4-(((5-chloropyridin-3-yl)methyl)amino)-2-(4-(2-(dimethylamino)ethyl)piperazin-1-yl)quinazolin-6-yl)-1-methylpyridin-2(1H)-one] | < 500 nM
CN(C)CCCN1CCN(c2nc(NCc3cncc(Cl)c3)c3cc(-c4ccc(=O)n(C)c4)ccc3n2)CC1 [Example 125, 5-(4-(((5-chloropyridin-3-yl)methyl)amino)-2-(4-(3-(dimethylamino)propyl)piperazin-1-yl)quinazolin-6-yl)-1-methylpyridin-2(1H)-one] | < 500 nM
